# Measurements reported in patent US7138421B2, “Anti-androgenic pyrrolidines with tumor-inhibiting action” (Schring Aktiengesellschaft, priority 2003, dated 2006).
# Test system: LNCaP cells
# Assay: Inhibition of the proliferation of LNCaP cells (crystal violet assay)
# Format: cell-based, human
# Settings: for inhibition at 1 µM / IC50: Homo sapiens, LNCaP; for inhibition at 1 µM: 1 μM test substance, compared to cell growth in the presence of 0.1 nmol of R1881, read-out: % Inhibition at 1 μM; for IC50: in the presence of 0.1 nmol of R1881, 7 to 8 days, read-out: IC50 inhibition of the proliferation of LNCaP cells
# Description: For the proliferation assay, 6000 LNCaP cells/well (Horoszewicz et al. Cancer Res. 1983, 43, 1809–1817) in a microtiter plate (96-well) in 50 μl of RPMI1640 medium are grown with 5% CCS and cultivated as in Model 1. After 24 hours, the cells receive 50 μl of 2×-concentrated test substance, diluted in culture medium. The solvent concentration is 0.5% DMSO. After 4 days, the cells receive another 100 μl of 1×-concentrated test substance, diluted in culture medium. After 7 to 8 days, the proliferation rate of the cells is determined by means of crystal violet assay (Gillies et al. Anal. Biochem. 1986, 159, 109–113). To determine the antagonism, the substance treatment is performed in the presence of […] of R1881 (1:1000 dilution of ethanolic solution). Control cells receive only 0.5% DMSO. For the agonism, the cells are treated only with test substance (without R1881).
SMILES,inhibition at 1 µM [%],IC50 [nM],antiproliferative action (in words) (LNCaP cells)
"COC[C@@H]1CCCN1CCCCCCCCCN1C(=S)N(c2ccc(C#N)c(C(F)(F)F)c2)C(=O)C1(C)C [Example 21, 4-[3-[9-[(2S)-2-(Methoxymethyl)pyrrolidin-1-yl]nonyl]-4,4-dimethyl-5-oxo-2-thioxoimidazolidin-1-yl]-2-(trifluoromethyl)benzonitrile]",94,47,–
"CC1CCCN1CCCCCCCCN1C(=S)N(c2ccc(C#N)c(C(F)(F)F)c2)C(=O)C1(C)C (stereo not drawn) [Example 36, 4-[4,4-Dimethyl-3-[8-(2-methylpyrrolidin-1-yl)octyl]-5-oxo-2-thioxoimidazolidin-1-yl]-2-(trifluoromethyl)benzonitrile]",96,15,–
"CC1(C)C(=O)N(c2ccc(C#N)c(C(F)(F)F)c2)C(=S)N1CCCCCN1CCCC1 [Comparison 2, 4-[4,4-Dimethyl-5-oxo-3-[5-(pyrrolidin-1-yl)pentyl]-2-thioxoimidazolidin-1-yl]-2-(trifluoromethyl)benzonitrile, reference compound]",38,2100,considerably reduced antiproliferative activity
"CC(C)(O)[C@H]1CCCN1CCCCCCCCN1C(=S)N(c2ccc(C#N)c(C(F)(F)F)c2)C(=O)C1(C)C [Example 44, 4-[3-[8-[(2R)-2-(1-Hydroxy-1-methylethyl)pyrrolidin-1-yl]octyl]-4,4-dimethyl-5-oxo-2-thioxoimidazolidin-1-yl]-2-(trifluoromethyl)benzonitrile]",115,11,–
"CC1(C)C(=O)N(c2ccc(C#N)c(C(F)(F)F)c2)C(=S)N1CCCCCCCN1CC[C@H](C(N)=O)C1 [Example 50, (S)-1-[7-[3-[4-Cyano-3-(trifluoromethyl)phenyl]-5,5-dimethyl-4-oxo-2-thioxoimidazolidin-1-yl]heptyl]pyrrolidine-4-carboxamide]",110,15,–
"CC1(C)C(=O)N(c2ccc(C#N)c(C(F)(F)F)c2)C(=S)N1CCCCCCCN1CCCC1 [Example 4, 4-[4,4-Dimethyl-5-oxo-3-[7-(pyrrolidin-1-yl)heptyl]-2-thioxoimidazolidin-1-yl]-2-(trifluoromethyl)benzonitrile]",98,45,–
"COC[C@H]1CCCN1CCCCCCCN1C(=S)N(c2ccc(C#N)c(C(F)(F)F)c2)C(=O)C1(C)C [Example 16, 4-[3-[7-[(2R)-2-(Methoxymethyl)pyrrolidin-1-yl]heptyl]-4,4-dimethyl-5-oxo-2-thioxoimidazolidin-1-yl]-2-(trifluoromethyl)benzonitrile]",98,18,–
"CC1(C)C(=O)N(c2ccc(C#N)c(C(F)(F)F)c2)C(=S)N1CCCCCCCCN1CC[C@@H](C(N)=O)C1 [Example 54, (R)-1-[8-[3-[4-Cyano-3-(trifluoromethyl)phenyl]-5,5-dimethyl-4-oxo-2-thioxoimidazolidin-1-yl]octyl]pyrrolidine-4-carboxamide]",93,64,–
"CCC(O)(CC)[C@@H]1CCCN1CCCCCCCCN1C(=S)N(c2ccc(C#N)c(C(F)(F)F)c2)C(=O)C1(C)C [Example 47, 4-[3-[8-[(2S)-2-(1-Hydroxy-1-ethylpropyl)pyrrolidin-1-yl]octyl]-4,4-dimethyl-5-oxo-2-thioxoimidazolidin-1-yl]-2-(trifluoromethyl)benzonitrile]",99,27,–
"COC[C@H]1CCCN1CCCCCCCCCN1C(=S)N(c2ccc(C#N)c(C(F)(F)F)c2)C(=O)C1(C)C [Example 20, 4-[3-[9-[(2R)-2-(Methoxymethyl)pyrrolidin-1-yl]nonyl]-4,4-dimethyl-5-oxo-2-thioxoimidazolidin-1-yl]-2-(trifluoromethyl)benzonitrile]",101,29,–
